Data reported in US20220119411A1, “IMMUNOMODULATORS, COMPOSITIONS AND METHODS THEREOF” (BETTA PHARMACEUTICALS CO., LTD, priority 2018, published 2022).

The compounds below were run against T1, PD-1/PD-L1 protein/protein interaction (Homo sapiens, UniProt Q9NZQ7) (assay: PD-1/PD-L1 homogenous time-resolved fluorescence (HTRF) binding assay). Conditions: recombinant human PD-L1 (19-238)-His 10 nM, human PD-1 (25-167)-Fc 3 nM, 25° C., PBS pH 7.4.
T1 construct: Recombinant human PD-L1 protein (19-238) with a His-tag at the C-terminus; purchased AcroBiosystems PD1-H5229 (PD-L1); PD1-H5257 (PD-1)
T1 sequence (Q9NZQ7 19-238): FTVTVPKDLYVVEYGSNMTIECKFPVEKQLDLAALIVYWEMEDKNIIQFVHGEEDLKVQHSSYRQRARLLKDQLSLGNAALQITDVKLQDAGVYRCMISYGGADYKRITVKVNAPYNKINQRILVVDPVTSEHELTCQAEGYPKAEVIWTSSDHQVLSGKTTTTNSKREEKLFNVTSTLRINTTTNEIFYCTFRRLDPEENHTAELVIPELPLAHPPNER
Procedure: Resolved Fluorescence (HTRF) Binding Assay
The assays were conducted in a standard black 384-well polystyrene plate with a final volume of 20 μL. Inhibitors were first serially diluted in DMSO and then added to the plate wells before the addition of other reaction components. The final concentration of DMSO in the assay was 1%. The assays were carried out at 25° C. in the PBS buffer (pH 7.4) with 0.05% Tween-20 and 0.1% BSA. Recombinant human PD-L1 protein (19-238) with a His-tag at the C-terminus was purchased from AcroBiosy stems (PD1-H5229). Recombinant human PD-1 protein (25-167) with Fc tag at the C-terminus was also purchased from AcroBiosystems (PD1-H5257). PD-L1 and PD-1 proteins were diluted in the assay buffer and 10 μL was added to the plate well. Plates were centrifuged and proteins were preincubated with inhibitors for 40 min. The incubation was followed by the addition of 10 μL of HTRF detection buffer supplemented with Europium cryptate-labeled anti-human IgG (PerkinElmer-AD0212) specific for Fc and anti-His antibody conjugated to SureLight®—Allophycocyanin (APC, PerkinElmer-AD0059H). After centrifugation, the plate was incubated at 25° C. for 60 min. Before reading on a PHERAstar FS plate reader (665 nm/620 nm ratio). Final concentrations in the assay were—3 nM PD1, 10 nM PD-L1, 1 nM europium anti-human IgG and 20 nM anti-His-Allophycocyanin. IC50 determination was performed by fitting the curve of percent control activity versus the log of the inhibitor concentration using the GraphPad Prism 5.0 software.
Data obtained for the Example compounds using the PD-1/PD-L1 homogenous time-resolved fluorescence (HTRF) binding assay described in Example A is provided in Table 2.
In the case of `Cc1ccccc1-c1cccc2c1CCN2C(=O)c1nc2c(s1)CN(CC(=O)O)CC2` [Example 5, 2-(2-(4-(o-tolyl)indoline-1-carbonyl)-6,7-dihydrothiazolo[5,4-c]pyridin-5(4H)-yl)acetic acid], the IC50 is reported as 25 to 100 nM. For `CN1CCc2nc(C(=O)N3CCc4c(-c5ccc6c(c5)OCCO6)cccc43)sc2C1` [Example 57, (4-(2,3-dihydrobenzo[b][1,4]dioxin-6-yl)indolin-1-yl)(5-methyl-4,5,6,7-tetrahydrothiazolo[5,4-c]pyridin-2-yl)methanone], the IC50 was at most 25 nM. Compound `O=C(CCN1CCC(O)C1)N1CCc2c(-c3cccc4c3CCN4C(=O)c3cn4c(n3)CNCC4)cccc21` (centres unmarked) [Example 42, 3-(3-hydroxypyrrolidin-1-yl)-1-(1′-(5,6,7,8-tetrahydroimidazo[1,2-a]pyrazine-2-carbonyl)-[4,4′-biindolin]-1-yl)propan-1-one] has an IC50 of at most 25 nM. Work on `O=C(O)CN1CCc2nc(C(=O)N3CCc4c(-c5cccc(CCCN6CCOCC6)c5)cccc43)sc2C1` [Example 17, 2-(2-(4-(3-(3-morpholinopropyl)phenyl)indoline-1-carbonyl)-6,7-dihydrothiazolo[5,4-c]pyridin-5(4H)-yl)acetic acid] yielded an IC50 of at most 25 nM. `O=C(O)CN1CCc2nc(C(=O)N3CCc4c(-c5cccc(OCCCN6CCC(O)C6)c5)cccc43)sc2C1` (centres unmarked) [Example 7, 2-(2-(4-(3-(3-(3-hydroxypyrrolidin-1-yl)propoxy)phenyl)indoline-1-carbonyl)-6,7-dihydrothiazolo[5,4-c]pyridin-5(4H)-yl)acetic acid] gave an IC50 of at most 25 nM. Work on `Cc1c(OCCCN2CCC(O)C2)cccc1-c1cccc2c1CCN2C(=O)c1nc2c(n1C)CCNC2` (centres unmarked) [Example 38, (4-(3-(3-(3-hydroxypyrrolidin-1-yl)propoxy)-2-methylphenyl)indolin-1-yl)(1-methyl-4,5,6,7-tetrahydro-1H-imidazo[4,5-c]pyridin-2-yl)methanone] yielded an IC50 of at most 25 nM. `O=C(O)CN1CCc2nc(C(=O)N3CCc4c(-c5cccc(CCCCN6CCOCC6)c5)cccc43)sc2C1` [Example 16, 2-(2-(4-(3-(4-morpholinobutyl)phenyl)indoline-1-carbonyl)-6,7-dihydrothiazolo[5,4-c]pyridin-5(4H)-yl)acetic acid] showed an IC50 of at most 25 nM. In the case of `O=C(O)CN1CCc2nc(C(=O)N3CCCc4c(-c5ccccc5)cccc43)sc2C1` [Example 28, 2-(2-(5-phenyl-1,2,3,4-tetrahydroquinoline-1-carbonyl)-6,7-dihydrothiazolo[5,4-c]pyridin-5(4H)-yl)acetic acid], the IC50 is reported as 25 to 100 nM. `O=C(O)CN1CCc2nc(C(=O)N3CCc4c(-c5cccc6c5CCN6CCN5CCC(O)C5)cccc43)sc2C1` (centres unmarked) [Example 12, 2-(2-(1′-(2-(3-hydroxypyrrolidin-1-yl)ethyl)-[4,4′-biindoline]-1-carbonyl)-6,7-dihydrothiazolo[5,4-c]pyridin-5(4H)-yl)acetic acid] showed an IC50 of at most 25 nM. `O=C(O)CN1CCc2nc(C(=O)N3CCc4c(-c5cccc6c5CCN6C(=O)c5ccccn5)cccc43)sc2C1` [Example 25, 2-(2-(1′-picolinoyl-[4,4′-biindoline]-1-carbonyl)-6,7-dihydrothiazolo[5,4-c]pyridin-5(4H)-yl)acetic acid] gave an IC50 of 25 to 100 nM. Work on `Cc1c(NC(=O)c2nccs2)cccc1-c1cccc2c1CCN2C(=O)c1nc2c(s1)CN(CC(=O)O)CC2` [Example 26, 2-(2-(4-(2-methyl-3-(thiazole-2-carboxamido)phenyl)indoline-1-carbonyl)-6,7-dihydrothiazolo[5,4-c]pyridin-5(4H)-yl)acetic acid] yielded an IC50 of at most 25 nM. In the case of `O=C(O)CCN1CCc2nc(C(=O)N3CCCc4c(-c5cccc(OCCN6CCOCC6)c5)cccc43)oc2C1` [Example 54, 3-(2-(5-(3-(2-morpholinoethoxy)phenyl)-1,2,3,4-tetrahydroquinoline-1-carbonyl)-6,7-dihydrooxazolo[5,4-c]pyridin-5(4H)-yl)propanoic acid], the IC50 is reported as 100 to 200 nM. In the case of `Cc1c(NC(=O)CCN2CCC(O)C2)cccc1-c1cccc2c1CCN2C(=O)c1nc2c(o1)CN(CC(=O)O)CC2` (centres unmarked) [Example 22, 2-(2-(4-(3-(3-(3-hydroxypyrrolidin-1-yl)propanamido)-2-methylphenyl)indoline-1-carbonyl)-6,7-dihydrooxazolo[5,4-c]pyridin-5(4H)-yl)acetic acid], the IC50 is reported as at most 25 nM. `O=C(O)CN1CCc2nc(C(=O)N3CCc4c(-c5cccc6c5CCN6C(=O)c5nccs5)cccc43)sc2C1` [Example 24, 2-(2-(1′-(thiazole-2-carbonyl)-[4,4′-biindoline]-1-carbonyl)-6,7-dihydrothiazolo[5,4-c]pyridin-5(4H)-yl)acetic acid] gave an IC50 of 25 to 100 nM. For `Cn1c(C(=O)N2CCCc3c(-c4cccc(OCCN5CCOCC5)c4)cccc32)nc2c1CN(CC(=O)O)CC2` [Example 51, 2-(3-methyl-2-(5-(3-(2-morpholinoethoxy)phenyl)-1,2,3,4-tetrahydroquinoline-1-carbonyl)-3,4,6,7-tetrahydro-5H-imidazo[4,5-c]pyridin-5-yl)acetic acid], the IC50 was at most 25 nM. In the case of `Cc1c(OCCCN2CCOCC2)cccc1-c1cccc2c1CCN2C(=O)c1nc2c(n1C)CN(CC(=O)O)CC2` [Example 21, 2-(3-methyl-2-(4-(2-methyl-3-(3-morpholinopropoxy)phenyl)indoline-1-carbonyl)-3,4,6,7-tetrahydro-5H-imidazo[4,5-c]pyridin-5-yl)acetic acid], the IC50 is reported as at most 25 nM. `CC(=O)N1CCc2c(-c3cccc4c3CCN4C(=O)c3nc4c(s3)CN(CC(=O)O)CC4)cccc21` [Example 2, 2-(2-(1′-acetyl-[4,4′-biindoline]-1-carbonyl)-6,7-dihydrothiazolo[5,4-c]pyridin-5(4H)-yl)acetic acid] was tested, and the IC50 was at most 25 nM. Compound `O=C(O)CN1CCc2nc(C(=O)N3CCc4c(-c5cccc(CCN6CCOCC6)c5)cccc43)sc2C1` [Example 19, 2-(2-(4-(3-(2-morpholinoethyl)phenyl)indoline-1-carbonyl)-6,7-dihydrothiazolo[5,4-c]pyridin-5(4H)-yl)acetic acid] has an IC50 of at most 25 nM. Work on `O=C(O)CN1CCc2nc(C(=O)N3CCc4c(-c5cccc(/C=C/CN6CCOCC6)c5)cccc43)sc2C1` [Example 18, (E)-2-(2-(4-(3-(3-morpholinoprop-1-en-1-yl)phenyl)indoline-1-carbonyl)-6,7-dihydrothiazolo[5,4-c]pyridin-5(4H)-yl)acetic acid] yielded an IC50 of at most 25 nM. `O=C(O)CN1CCc2nc(C(=O)N3CCc4c(-c5cccc(NC(=O)CCN6CCC(O)C6)c5)cccc43)sc2C1` (centres unmarked) [Example 14, 2-(2-(4-(3-(3-(3-hydroxypyrrolidin-1-yl)propanamido)phenyl)indoline-1-carbonyl)-6,7-dihydrothiazolo[5,4-c]pyridin-5(4H)-yl)acetic acid] gave an IC50 of at most 25 nM. Work on `Cc1c(Nc2nccc3cc(CN4CCCC[C@H]4C(=O)O)cnc23)cccc1-c1cccc2c1CCN2C(=O)c1nc2c(s1)CNCC2` [Example 58, (S)-1-((8-((2-methyl-3-(1-(4,5,6,7-tetrahydrothiazolo[5,4-c]pyridine-2-carbonyl)indolin-4-yl)phenyl)amino)-1,7-naphthyridin-3-yl)methyl)piperidine-2-carboxylic acid] yielded an IC50 of at most 25 nM. With `Cc1c(NC(=O)CCN2CCC(O)C2)cccc1-c1cccc2c1CCN2C(=O)c1nc2c(n1C)CN(CC(=O)O)CC2` (centres unmarked) [Example 33, 2-(2-(4-(3-(3-(3-hydroxypyrrolidin-1-yl)propanamido)-2-methylphenyl)indoline-1-carbonyl)-3-methyl-3,4,6,7-tetrahydro-5H-imidazo[4,5-c]pyridin-5-yl)acetic acid] the IC50 was at most 25 nM. `O=C(c1nc2c(o1)CN(CCO)CC2)N1CCCc2c(-c3cccc(OCCN4CCOCC4)c3)cccc21` [Example 53, (5-(2-hydroxyethyl)-4,5,6,7-tetrahydrooxazolo[5,4-c]pyridin-2-yl)(5-(3-(2-morpholinoethoxy)phenyl)-3,4-dihydroquinolin-1(2H)-yl)methanone] showed an IC50 of 25 to 100 nM. For `O=C(O)CN1CCc2nc(C(=O)N3CCc4c(-c5ccccc5)cccc43)sc2C1` [Example 4, 2-(2-(4-phenylindoline-1-carbonyl)-6,7-dihydrothiazolo[5,4-c]pyridin-5(4H)-yl)acetic acid], the IC50 was at most 25 nM. `O=C(O)CN1CCc2nc(C(=O)N3CCc4c(-c5cccc(OCCCCN6CCC(O)C6)c5)cccc43)sc2C1` (centres unmarked) [Example 9, 2-(2-(4-(3-(4-(3-hydroxypyrrolidin-1-yl)butoxy)phenyl)indoline-1-carbonyl)-6,7-dihydrothiazolo[5,4-c]pyridin-5(4H)-yl)acetic acid] gave an IC50 of at most 25 nM. `CN1CCc2c(-c3cccc4c3CCN4C(=O)c3nc4c(s3)CN(CC(=O)O)CC4)cccc21` [Example 1, 2-(2-(1′-methyl-[4,4′-biindoline]-1-carbonyl)-6,7-dihydrothiazolo[5,4-c]pyridin-5(4H)-yl)acetic acid] gave an IC50 of 25 to 100 nM.
